The subject of one series is mouse stroke model. To be noted: intravenous injection of 100 mg/kg; cited from earlier work.
Series [1] deals with middle cerebral artery occlusion (MCAO) model in mice. Nature of the series: Neurobehavioral test (motor neurobehavior evaluation score 0-4) in mice of the middle cerebral artery occlusion model. The class given is in vivo. Conditions: 10 mg/kg (2 mg/mL) tail vein injection 5 hours after stroke, higher score = higher motor dysfunction (vehicle control 3). The method, then: (§1) In order to simulate human brain stroke, an intravascular suture-occluded method was employed to establish a middle cerebral artery occlusion (MCAO) model in mice. Prior to experimentation, the body weights of the mice were measured and rectum temperatures were recorded. The mice were anesthetized with 4% halothane in 100% O2 followed by 0.5-1% halothane in 70% N2O and 30% O2 to maintain the anesthetized status. The mouse cerebral artery occlusion model is established according to the Tamura method (Focal cerebral ischemia in the rat: 1. Description of technique and early neuropathological consequences following middle cerebral artery occlusion. J Cereb Blood Flow Metab. 1981; 1(1):53-60. Tamura A, Graham D I, McCulloch J, Teasdale G M). […]
The body weights of the mice in the three test groups in Example 4 were measured and neurological examination was conducted concurrently. […] Since 15 days after stroke is no longer the acute stroke phase, the invention evaluated the status of the motor system of mice treated within the acute stroke phase and those treated after the acute stroke phase. The motor responses to be assessed are listed in Table 1 (Middle cerebral artery occlusion in the rat by intraluminal suture. Neurological and pathological evaluation of an improved model. Belayev L, Alonso O F, Busto R, Zhao W, Ginsberg M D. Stroke. 1996 September; 27(9):1616-22; discussion 1623). […]

Series [2] has the same test system. Kind of series: Brain infarct volume, atrophy and edema by Nissl staining in mice of the middle cerebral artery occlusion model. The class given is in vivo. Conditions: 10 mg/kg (2 mg/mL). The method, then: as §1, with “M). The mouse was secured in prone position and an incision was introduced to the lateral of the head and neck portion by a scalpel to expose the right common carotid artery. The middle cerebral artery (MCA) was cauterized to simulate ischemia.” for “M).”
The mice of the middle cerebral artery occlusion model were sacrificed 15 days after the treatment with the three groups of drugs. Brain samples of the mice were collected and local ischemic injuries on the neuron gray matter of the mice brains were evaluated with Nissl staining using cresyl violet. […]

The text below walks through data of patent US11660345B2, “Method and composition for enhancing the delivery of anti-platelet drugs for the treatment of acute stroke” (Realinn Life Science Limited, priority 2013, dated 2023).

As to `OCCN(CCO)c1nc(N2CCCCC2)c2nc(N(CCO)CCO)nc(N3CCCCC3)c2n1` [Dipyridamole], in the series on mouse stroke model, the “hypotension / mortality (in words)” value is “causes hypotension and increases the mortality rate”; the “infarct volume (in words)” value is on record as “can efficiently reduce the infarct volume”.

For “recombinant-type plasminogen activator: recombinant-type plasminogen activator (rt-PA), thrombolytic agent”, the “score of the motor neurobehavior evaluation” value stood at 2.3 in series [1] (after 7 days of treatment) and 2.6 in series [1] (after 15 days of treatment). For the same compound, in series [2] (5 hours after stroke, 15 days after treatment (vehicle control about 14%)), the brain infarct volume entry is “about 18%”. Further, the “brain atrophy (Nissl staining / infarct volume calculation)” value in series [2] (15 days after treatment) is “atrophied after 15 days”.
